Measured values taken from ChEMBL document CHEMBL1201862, “PubChem BioAssay data set” (2004).
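Interpolation was linear, between the two tested concentrations surrounding the appropriate level; five concentrations were tested over 48 hours in 96-well plates. Abbreviation: GI50, concentration required for 50% inhibition of growth.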 Calls of active or inactive are those of the source. Cut-off read from the data, not from the text of the source: active = GI50 up to about 1.1 µM and inactive = higher.

Legend:
Experiment in all cases: DTP human tumour cell line panel, 48 h
[1] = tested on: ACHN
[2] = tested on: OVCAR-5
[3] = tested on: HT-29
[4] = tested on: SNB-75
[5] = tested on: OVCAR-8
[6] = tested on: EKVX
[7] = tested on: MOLT-4
[8] = tested on: SF-295
[9] = tested on: HOP-92
[10] = tested on: RPMI-8226
[11] = tested on: Malme-3M
[12] = tested on: NCI-H23
[13] = tested on: HCT-116
[14] = tested on: SW-620
[15] = tested on: A549
[16] = tested on: RXF 393
[17] = tested on: SR

Measured: GI50

COc1cccc(-c2cc(=O)c3cc(C)c(C)c(C(=O)O)c3o2)c1
inactive: [1] > 100 µM | [2] > 100 µM | [3] > 100 µM | [4] 16.9 µM | [5] > 100 µM | [6] > 100 µM | [7] > 100 µM | [8] > 100 µM | [9] > 100 µM | [10] > 100 µM | [11] > 100 µM | [12] > 100 µM | [13] > 100 µM | [14] > 100 µM | [15] > 100 µM

Nc1c(C(=O)NC23CC4CC(CC(C4)C2)C3)[n+]([O-])c2ccccc2[n+]1[O-]
inactive: [1] > 100 µM | [2] > 100 µM | [3] > 100 µM | [4] > 100 µM | [5] > 100 µM | [6] > 100 µM | [7] > 100 µM | [8] > 100 µM | [9] 90.4 µM | [10] > 100 µM | [11] > 100 µM | [12] > 100 µM | [14] > 100 µM | [15] > 100 µM

C=CCn1cc(C(=O)NC(=O)NCCCCCOC(=O)CCCCCCCCCCC(=O)OCCCCCNC(=O)NC(=O)c2cn(CC=C)c(=O)n(C)c2=O)c(=O)n(C)c1=O
inactive: [1] > 100 µM | [2] > 100 µM | [3] > 100 µM | [16] > 100 µM | [4] > 100 µM | [5] > 100 µM | [6] > 100 µM | [7] > 100 µM | [9] > 100 µM | [10] > 100 µM | [11] > 100 µM | [12] > 100 µM | [13] > 100 µM | [14] > 100 µM | [15] > 100 µM

CCCC1=C(CC)C(C(=O)Nc2c(C)cccc2C)=NC(S)N1 (stereo not drawn)
inactive: [1] > 100 µM | [2] > 100 µM | [3] > 100 µM | [17] > 100 µM | [4] 59 µM | [5] > 100 µM | [6] > 100 µM | [7] > 100 µM | [8] > 100 µM | [9] > 100 µM | [10] > 100 µM | [11] > 100 µM | [12] > 100 µM | [13] > 100 µM | [14] > 100 µM | [15] > 100 µM

CCOC(=O)Cc1nc2ccc3c(c2nc1O)C(=O)c1ccccc1C3=O
inactive: [1] 20.6 µM | [2] > 100 µM | [3] > 100 µM | [16] 8.09 µM | [4] 62.7 µM | [5] 31.6 µM | [6] 3.61 µM | [7] 5.45 µM | [9] 60.4 µM | [10] 13.6 µM | [11] 60.7 µM | [12] 40.2 µM | [13] 31.5 µM | [14] 56 µM | [15] 34.4 µM

COc1cc(C2[C@H]3C(=O)N(c4ccc(Cc5ccc(N6C(=O)[C@@H]7ON(c8ccccc8)C(c8cc(OC)c(OC)c(OC)c8)[C@@H]7C6=O)cc5)cc4)C(=O)[C@H]3ON2c2ccccc2)cc(OC)c1OC (stereo partly drawn)
inactive: [1] > 100 µM | [2] > 100 µM | [3] > 100 µM | [17] > 100 µM | [16] > 100 µM | [4] > 100 µM | [5] > 100 µM | [6] > 100 µM | [7] > 100 µM | [8] > 100 µM | [10] > 100 µM | [11] 46.3 µM | [12] > 100 µM | [13] > 100 µM | [14] > 100 µM | [15] > 100 µM

CC1(C)CC(=O)C(CC2C(=O)CCCC2=O)C(=O)C1
inactive: [1] > 100 µM | [2] > 100 µM | [3] > 100 µM | [17] > 100 µM | [16] > 100 µM | [4] > 100 µM | [5] > 100 µM | [6] > 100 µM | [7] > 100 µM | [8] > 100 µM | [11] > 100 µM | [12] > 100 µM | [13] > 100 µM | [14] > 100 µM | [15] > 100 µM

CN(C)CC1CCCCCCCCCCCCC(CN(C)C)C1=O (stereo not drawn)
inactive: [1] 16.2 µM | [2] 16.7 µM | [3] 5.66 µM | [17] 1.46 µM | [16] 11.2 µM | [4] 11.9 µM | [5] 10.3 µM | [6] 22.6 µM | [7] 2.09 µM | [8] 15.8 µM | [9] 13.2 µM | [11] 15.7 µM | [12] 17.7 µM | [13] 4.54 µM | [14] 7.64 µM | [15] 15.5 µM

COc1cccc([C@@]2(O)c3c(ccc(O)c3OC)[C@H]2OC)c1OC
inactive: [1] 31.3 µM | [2] > 100 µM | [3] 28.1 µM | [17] 38.5 µM | [4] 47.6 µM | [5] 38.5 µM | [6] 47.2 µM | [7] 45.5 µM | [8] 57.8 µM | [9] 62.7 µM | [10] 39.1 µM | [11] 46.2 µM | [12] 43.9 µM | [14] 28.6 µM | [15] 37 µM

O=C1OC(c2ccccc2)=N/C1=C\c1cc(Cl)ccc1Cl
inactive: [1] > 100 µM | [2] > 100 µM | [3] > 100 µM | [16] > 100 µM | [4] 3.48 µM | [5] > 10 µM | [6] > 100 µM | [7] 23 µM | [8] > 100 µM | [9] > 100 µM | [10] 44.8 µM | [11] > 100 µM | [12] > 100 µM | [13] 10.3 µM | [14] 34.9 µM | [15] > 100 µM

O=C(N/N=C/c1ccccc1O)c1cccc([N+](=O)[O-])c1
inactive: [1] 8.41 µM | [2] 22.4 µM | [3] 5.93 µM | [17] 3.78 µM | [16] 8.95 µM | [5] 6.95 µM | [6] 21.1 µM | [7] 3.1 µM | [8] 19.7 µM | [10] 8.04 µM | [11] 30.8 µM | [12] 16.5 µM | [13] 22.5 µM | [14] 4.54 µM | [15] 31 µM

Cc1ccccc1C(=O)Oc1ccc(Oc2ccccc2)cc1
inactive: [1] 28.4 µM | [2] > 100 µM | [3] > 100 µM | [16] > 100 µM | [4] > 100 µM | [5] > 100 µM | [6] 73.5 µM | [7] 67 µM | [8] > 100 µM | [10] > 100 µM | [11] > 100 µM | [12] > 100 µM | [13] > 100 µM | [14] 73.6 µM | [15] > 100 µM

CCCCCCCCCCCCCCCCCc1nnc(N)o1
inactive: [1] > 100 µM | [2] > 100 µM | [3] > 100 µM | [17] > 100 µM | [4] > 100 µM | [5] > 100 µM | [7] > 100 µM | [8] > 100 µM | [9] > 100 µM | [10] > 100 µM | [11] > 100 µM | [12] 47.4 µM | [13] > 100 µM | [14] > 100 µM | [15] > 100 µM

CSc1nc(NC2OCC(OC(C)=O)C(OC(C)=O)C2OC(C)=O)c(/N=C(\C)C(C)=O)c(=O)n1C (stereo not drawn)
inactive: [1] > 100 µM | [2] > 100 µM | [3] > 100 µM | [16] > 100 µM | [4] > 100 µM | [5] > 100 µM | [6] > 100 µM | [7] > 100 µM | [8] > 100 µM | [9] > 100 µM | [10] > 100 µM | [11] > 100 µM | [12] > 100 µM | [13] > 100 µM | [14] > 100 µM | [15] > 100 µM

CN1N=C(Nc2ccccc2)Sc2c1cnn(-c1ccccc1)c2=O
inactive: [1] > 100 µM | [3] > 100 µM | [16] > 100 µM | [5] > 100 µM | [6] > 100 µM | [7] > 100 µM | [8] 73.3 µM | [9] 6.62 µM | [10] 93.3 µM | [11] > 100 µM | [12] 66.1 µM | [13] > 100 µM | [14] > 100 µM | [15] > 100 µM

Cc1ccccc1-n1c(C)nc(-c2ccccc2)cc1=O
inactive: [1] > 100 µM | [2] > 100 µM | [3] > 100 µM | [16] > 100 µM | [4] 37.7 µM | [5] > 100 µM | [6] > 100 µM | [7] > 100 µM | [8] > 100 µM | [9] > 100 µM | [11] > 100 µM | [12] > 100 µM | [13] > 100 µM | [14] > 100 µM | [15] > 100 µM

Cc1ccc(Oc2ccc([N+](=O)[O-])cc2[N+](=O)[O-])c(C)c1
inactive: [1] 47.6 µM | [2] 82.8 µM | [3] 25.6 µM | [16] 20.5 µM | [4] 37.5 µM | [5] 59.2 µM | [6] 88.7 µM | [7] 21.5 µM | [8] 49.3 µM | [10] 26.5 µM | [11] 75 µM | [12] 28.7 µM | [13] 30.3 µM | [14] 47.1 µM | [15] 34.1 µM
